Measurements taken from patent publication US20260234125A1, “CYCLIC AMINE DERIVATIVE, AND COMPOSITION AND USE THEREOF” (SHANGHAI JINGXIN BIOMEDICAL CO., LTD., priority 2023, published 2026).

Molecular target: T1, human Apo(a) protein (Homo sapiens, UniProt P08519)
T1 construct: biotin (biotinylated)
Assay: BLI affinity of compounds to Apo(a)
Format: binding
Conditions: biotinylated apolipoprotein(a) on SA sensor, compound 100 nM
Description: • 1. Experimental purpose: The purpose of this test is to test the affinity of the compounds of the present disclosure to Apo(a) • 2. Experimental instruments and reagents: • Molecular interaction analyzer (ForteBio Octet red 96e), • SA sensor (ForteBio), • 96-well plates were purchased from Greine, • 3. Experimental methods:
Prepared two 96-well plates, one as a sample plate and another as a pre-wett plate, curing buffer was added to a 200 μL well of the pre-wet plate, and the SA sensor was pre-wetted for at least ten minutes. All reagents and samples were added to another black sample plate, after the sample addition was completed, the sensor plate and the sample plate were placed into the ForteBio Octet red 96e instrument. The program was set up in sequence for detection. The experimental temperature was set to 30° C. and the acquisition frequency was set at 5.0 Hz. The biosensor was run in 1×PBS, pH7.4, 0.02% Tween-20, 0.1% BSA in the first column for 60 seconds, which was the baseline step. Biotinylated apolipoprotein(a) was diluted to 40 μg/ml with 1×PBS, pH7.4, 0.02% Tween-20, 0.1% BSA, and added to the second column, where it was run for a period of time until the amount of curing on the sensor reaches 2.0 nm. The biosensor was run in 1×PBS, pH7.4, 0.02% Tween-20, 0.1% BSA in the third column for 60 seconds, which was the baseline step. The compound was diluted to 100 nM with 1×PBS, pH7.4, 0.02% Tween-20, 0.1% BSA, and added to the fourth column, where the sensor was run for 60 seconds. The sensor was run in 1×PBS, pH7.4, 0.02% Tween-20, 0.1% BSA in the third column for 120 seconds, during this process, the compound dissociated from the sensor. The affinity constant KD reflects the size of the interaction binding ability. When the concentration of the analyte is at KD, the equilibrium signal Req is half of Rmax.

T1 sequence (P08519 20-2040): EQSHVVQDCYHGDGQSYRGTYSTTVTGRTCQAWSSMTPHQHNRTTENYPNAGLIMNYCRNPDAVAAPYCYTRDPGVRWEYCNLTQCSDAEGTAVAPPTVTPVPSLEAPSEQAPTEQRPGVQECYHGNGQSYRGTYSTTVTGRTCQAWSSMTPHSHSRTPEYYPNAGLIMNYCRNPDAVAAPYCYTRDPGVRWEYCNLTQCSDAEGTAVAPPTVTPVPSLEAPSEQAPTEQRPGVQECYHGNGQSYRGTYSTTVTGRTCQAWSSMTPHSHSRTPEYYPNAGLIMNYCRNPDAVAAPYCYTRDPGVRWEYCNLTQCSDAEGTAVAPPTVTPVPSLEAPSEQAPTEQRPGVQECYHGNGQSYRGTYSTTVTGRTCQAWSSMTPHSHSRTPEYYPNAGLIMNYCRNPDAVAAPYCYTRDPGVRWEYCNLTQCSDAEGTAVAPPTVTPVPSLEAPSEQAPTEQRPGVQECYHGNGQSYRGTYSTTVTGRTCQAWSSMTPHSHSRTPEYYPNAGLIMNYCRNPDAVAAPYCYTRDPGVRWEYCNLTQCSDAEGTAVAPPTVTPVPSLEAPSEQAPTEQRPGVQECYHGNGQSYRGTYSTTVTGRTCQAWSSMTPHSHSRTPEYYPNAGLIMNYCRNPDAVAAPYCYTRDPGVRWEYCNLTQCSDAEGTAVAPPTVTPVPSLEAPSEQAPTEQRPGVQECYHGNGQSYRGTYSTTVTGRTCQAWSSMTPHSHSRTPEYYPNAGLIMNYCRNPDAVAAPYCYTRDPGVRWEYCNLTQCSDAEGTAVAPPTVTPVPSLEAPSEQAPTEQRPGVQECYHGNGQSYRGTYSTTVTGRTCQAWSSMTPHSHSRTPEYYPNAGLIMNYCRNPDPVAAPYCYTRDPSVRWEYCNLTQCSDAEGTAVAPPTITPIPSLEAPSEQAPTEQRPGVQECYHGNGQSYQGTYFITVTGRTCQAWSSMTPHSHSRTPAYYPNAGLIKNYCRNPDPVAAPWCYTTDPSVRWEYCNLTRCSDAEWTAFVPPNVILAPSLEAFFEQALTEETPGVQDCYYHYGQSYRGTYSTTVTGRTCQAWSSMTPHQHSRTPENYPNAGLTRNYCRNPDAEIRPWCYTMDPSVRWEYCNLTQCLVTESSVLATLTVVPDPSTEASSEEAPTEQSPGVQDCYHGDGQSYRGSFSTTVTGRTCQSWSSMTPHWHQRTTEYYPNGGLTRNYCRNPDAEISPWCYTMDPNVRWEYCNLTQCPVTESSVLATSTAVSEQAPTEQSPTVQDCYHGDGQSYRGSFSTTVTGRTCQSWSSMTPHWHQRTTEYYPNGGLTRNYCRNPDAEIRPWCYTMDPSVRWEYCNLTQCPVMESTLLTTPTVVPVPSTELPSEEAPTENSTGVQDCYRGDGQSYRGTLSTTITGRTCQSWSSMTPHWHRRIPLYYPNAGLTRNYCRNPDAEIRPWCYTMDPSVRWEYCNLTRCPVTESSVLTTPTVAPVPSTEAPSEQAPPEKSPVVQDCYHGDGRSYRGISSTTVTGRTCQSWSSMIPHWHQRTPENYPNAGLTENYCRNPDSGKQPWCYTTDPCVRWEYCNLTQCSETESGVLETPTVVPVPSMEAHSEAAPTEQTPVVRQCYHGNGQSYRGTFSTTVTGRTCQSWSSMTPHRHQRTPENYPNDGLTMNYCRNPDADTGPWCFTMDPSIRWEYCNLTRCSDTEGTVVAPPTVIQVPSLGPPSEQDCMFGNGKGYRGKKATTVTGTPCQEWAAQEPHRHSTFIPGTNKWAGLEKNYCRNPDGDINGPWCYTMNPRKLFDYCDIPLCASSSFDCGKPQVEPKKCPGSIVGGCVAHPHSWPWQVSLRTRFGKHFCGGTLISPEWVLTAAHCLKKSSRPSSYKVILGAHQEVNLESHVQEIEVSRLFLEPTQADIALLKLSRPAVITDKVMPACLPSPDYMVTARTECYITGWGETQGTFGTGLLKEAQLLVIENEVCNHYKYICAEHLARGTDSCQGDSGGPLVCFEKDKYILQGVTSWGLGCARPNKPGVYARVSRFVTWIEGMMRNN

Row | SMILES | Kd [nM]
1 | O=C(O)[C@@H](Cc1cccc(Oc2nc(Oc3cccc(C[C@H](C(=O)O)[C@H]4CCNC4)c3)nc(Oc3cccc(C[C@H](C(=O)O)[C@H]4CCNC4)c3)n2)c1)[C@H]1CCNC1 [Example 7] | 8.06
2 | O=C(O)[C@@H](Cc1cccc(OCc2cc(COc3cccc(C[C@H](C(=O)O)[C@H]4CCNC4)c3)cc(COc3cccc(C[C@H](C(=O)O)[C@H]4CCNC4)c3)c2)c1)[C@H]1CCNC1 [Example 10] | 25.3

Now from value to molecule:

Row | Kd [nM] | SMILES
3 | 19.9 | O=C(O)[C@@H](Cc1cccc(COC2CC(OCc3cccc(C[C@H](C(=O)O)[C@H]4CCNC4)c3)CC(OCc3cccc(C[C@H](C(=O)O)[C@H]4CCNC4)c3)C2)c1)[C@H]1CCNC1 (some centres unmarked) [Example 6]
4 | 18.7 | O=C(NCCN(CCNC(=O)c1cccc(C[C@H](C(=O)O)[C@H]2CCNC2)c1)CCNC(=O)c1cccc(C[C@H](C(=O)O)[C@H]2CCNC2)c1)c1cccc(C[C@H](C(=O)O)[C@H]2CCNC2)c1 [Example 8]
5 | 14.2 | O=C(O)[C@@H](Cc1cccc(CN(Cc2cccc(C[C@H](C(=O)O)[C@H]3CCNC3)c2)Cc2cccc(C[C@H](C(=O)O)[C@H]3CCNC3)c2)c1)C1CNC1 [Example 11]
